Source: patent US6716837B1, “Heterocyclic compounds for the treatment of migraine” (NPS Allelix Biopharmaceuticals, Inc., priority 1999, dated 2004)

Molecular target: T1, 5-HT1D receptor (Homo sapiens, UniProt P28221)
T1 construct: expressed in transfected cells
Assay: 5-HT1D receptor binding, inhibition of 3H-serotonin binding
Conditions: 100 nM test compound; 3H-serotonin 1 nM; membranes from recombinant cells; 60 minute incubation at 22° C.; read-out: percent inhibition of binding of the radio ligand at the 5-HT1D receptor
Protocol: Selected compounds of the previous examples, as well as reference compounds, were evaluated for binding affinity using cell types receptive specifically to 5-HT1D and 5-HT1B ligands. The assay protocol generally entailed the incubation of membranes prepared from cells expressing the 5-HT1D or 5-HT1B subtype of 5-HT receptors with ^3H-serotonin (1 nM for 5-HT1D and 2.5 nM for 5-HT1B). Specific concentrations of the test compound were incubated with the radio ligand and the membrane homogenates prepared from the recombinant cells. After a 60 minute incubation at 22° C., the incubation was terminated by vacuum filtration. The filters were washed with buffer and counted for radioactivity using liquid scintillation spectroscopy. The affinity of the test compound for the 5-HT1D receptor is expressed as the amount (in percent) of binding of the radio ligand that is inhibited in the presence of 100 nM of test compound. A greater percent inhibition indicates greater affinity for the 5-HT1D receptor.

T1 sequence (P28221 whole entry): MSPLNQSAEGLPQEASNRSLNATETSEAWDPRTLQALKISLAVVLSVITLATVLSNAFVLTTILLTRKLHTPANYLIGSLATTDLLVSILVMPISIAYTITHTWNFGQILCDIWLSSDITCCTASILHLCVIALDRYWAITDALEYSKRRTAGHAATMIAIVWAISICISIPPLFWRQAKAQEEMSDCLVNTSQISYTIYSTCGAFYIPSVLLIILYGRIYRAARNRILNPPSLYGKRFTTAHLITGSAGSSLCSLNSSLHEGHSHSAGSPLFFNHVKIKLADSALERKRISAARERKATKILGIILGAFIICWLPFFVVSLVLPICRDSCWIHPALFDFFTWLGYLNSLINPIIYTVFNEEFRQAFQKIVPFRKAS

**Q.** Which inhibition at 0.1 µM does the source give for `CC(C)n1ncc2ccc(CCN(C)C)cc21` [Example 14, 6-(2-(N,N-Dimethylamino)ethyl)-1-isopropyl-1H-indazole] here?
**A.** > 90%

**Q.** How did the inhibition at 0.1 µM turn out when `CN(C)CCc1ccc2ccn(-c3cccnc3)c2c1` [Example 19f, 6-(2-Dimethylaminoethyl)-1-(3-pyridinyl)-indole] was run?
**A.** > 90%

**Q.** How did the inhibition at 0.1 µM turn out when `Brc1ccc2ccn(C3CCNCC3)c2c1` [Example 10c, 6-Bromo-1-(4-piperidinyl)-indole] was run?
**A.** > 50%

**Q.** Which inhibition at 0.1 µM does the source give for `CN1CC=C(c2ccc3ccn(-c4cccnc4)c3c2)CC1` [Example 19d, 6-(N-Methyl-1,2,5,6-tetrahydropyridin-4-yl)-1-(3-pyridyl)-indole] here?
**A.** > 75%

**Q.** Which inhibition at 0.1 µM does the source give for `CC(C)n1ccc2ccc(CCN(C)C)cc21` [Example 2, 6-(2-(N,N-Dimethylamino)ethyl)-1-isopropyl-indole] here?
**A.** > 90%

**Q.** Which inhibition at 0.1 µM does the source give for `CN1CC=C(c2ccc3ccn(-c4nccs4)c3c2)CC1` [Example 19i, 6-(N-Methyl-1,2,5,6-tetrahydropyridin-4-yl)-1-(2-thiazolyl)-indole] here?
**A.** > 50%

**Q.** How did the inhibition at 0.1 µM turn out when `CC(C)n1ccc2ccc(C3=CCN(C)CC3)cc21` [Example 16c, 6-[N-Methyl-1,2,5,6-tetrahydropyridin-4-yl]-1-isopropyl-indole] was run?
**A.** > 50%

**Q.** Which inhibition at 0.1 µM does the source give for `CN1CC=C(c2ccc3ccn(-c4ccsc4)c3c2)CC1` [Example 19c, 6-(N-Methyl-1,2,5,6-tetrahydropyridin-4-yl)-1-(3-thienyl)-indole] here?
**A.** > 75%

**Q.** For `CN(C)CCc1ccc2ccn(C3CCOCC3)c2c1` [Example 11b, 6-(2-Dimethylaminoethyl)-1-(tetrahydropyran4-yl)-indole], which inhibition at 0.1 µM is on record?
**A.** > 90%

**Q.** With `CN1CC=C(c2ccc3ccn(-c4ccc(F)cc4)c3c2)CC1` [Example 19, 1-(4-Fluorophenyl)-6-(N-methyl-1,2,5,6-tetrahydropyridin-4-yl)-indole] as the compound, how does the inhibition at 0.1 µM read?
**A.** > 75%

Molecular target: T1, 5-HT1D receptor
Assay: Functional assay: inhibition of forskolin-stimulated adenyl cyclase (cAMP) in CHO cells
Assay type: cell-based
Conditions: CHO cells stably expressing the 5-HT1D receptor; test compound at 100 nM and 10 μM
Protocol: The 5HT1D and 5HT1B receptor subtypes respond to serotonin and other agonists by reducing adenyl cyclase mediated production of cyclic AMP. Particular test compounds were assayed for their ability to inhibit adenyl cyclase activity using the procedure described below. Forskolin was used to elevate the basal adenyl cyclase activity.
Compounds acting as antagonists at the 5HT1D and 5HT1B receptor subtypes will antagonize the agonist effect of serotonin and thus, will block the serotonin-induced inhibition of forskolin-stimulated adenyl cyclase activity. […]
The culture media of each well was removed, and the wells were washed once with serum free media. […] Basal adenyl cyclase activity was determined from wells with only SFM+IBMX media added.
The cells were then incubated at 37° C. for 30 minutes in a CO2 incubator. […] The pellets were discarded and the supernatants were stored at 4° C. until assayed for cAMP concentration. cAMP content for each extract was determined in duplicate by EIA (enzyme-immunoassay) using the Amersham Biotrak cAMP EIA kit (Amersham RPN 225).
Total inhibition (Io) of forskolin-stimulated adenyl cyclase activity by serotonin was determined as the difference in concentration of cAMP in the forskolin-treated cells (Cf) and serotonin-forskolin treated cells (Cd). […]

**Q.** With `CC(C)n1ccc2ccc(CCN(C)C)cc21` [Example 2, 6-(2-(N,N-Dimethylamino)ethyl)-1-isopropyl-indole] as the compound, how does the “effect on forskolin stimulated production of cAMP (agonist activity)” value read?
**A.** caused a decrease in the forskolin stimulated production of cAMP
